Test results reported in patent US11266715B2, “C3A receptor agonists for use against ischemic brain injury, stroke, traumatic brain injury, spinal cord injury and neurodegenerative disorders” (priority 2016, dated 2022).

Tests used:
GFAP = GFAP immunoreactivity in dorsal hippocampus after neonatal HI; type: in vivo, mouse; conditions: P55, 3 days treatment after HI
Protocol: On P51 (long-term study) or P55 (short-term study), mice were deeply anesthetized with thiopental [Pentothal Sodium (0.01 ml/g body weight), Hospira, Ill., USA)] and transcardially perfused with 0.9% saline, followed by 4% paraformaldehyde (PFA) in 0.1 M PBS. Brains were removed and post-fixed in 4% PFA at 4° C. for 24 h followed by 70% ethanol for 24 h. Tissue was processed using an automatic tissue processor (SAKURA Tissue Tek VIP 3000, Tournai, Belgium) and embedded in paraffin. Brains were cut at room temperature into 8-μm serial coronal sections using a sliding microtome (Microm HM 450, Thermo Scientific, Massachusetts, USA), attached to silane coated slides and dried at RT. […]
(§1) NeuN positive cells, GFAP positive relative area, as well as GAP-43, SYN, and VGLUT1 positive puncta were counted by using MetaMorph software (ver. 7.8.6, Molecular Devices, CA, USA) on confocal images obtained with a 20× (NeuN and GFAP) or 63× (GAP-43, SYN, and VGLUT1) objective (Carl Zeiss LSM 700 Laser Scanning Microscope, Jena, Germany). Iba-1 positive cell somata were counted on bright field images obtained with a 20× objective (Nikon Eclipse 80i). […]

GAP-43+ puncta = test: GAP-43 immunostaining of dorsal hippocampus after neonatal HI; type: in vivo, mouse
Protocol: Neuronal nuclei (NeuN), growth associated protein 43 (GAP-43), synapsin I (SYN), vesicular glutamate transporter 1 (VGLUT1), Glial Fibrillary Acidic Protein (GFAP) and ionized calcium-binding adapter molecule 1 (Iba-1) were visualized in the cornu ammonis (CA) and dentate gyrus (DG) of the dorsal hippocampus by immunohistochemistry. Briefly, following heat-induced antigen retrieval with 0.01 M citrate buffer (pH 6, 0.05% Tween 20) for 3×5 min, sections were washed 3×5 min with PBS-T (0.05% Tween 20), non-specific protein binding was reduced by incubation with blocking buffer [4% normal donkey serum (NeuN and Iba-1), 1% bovine serum albumin (GAP-43 and SYN), 3% normal goat serum (VGLUT1), 2% bovine serum albumin (GFAP) in PBS-T] for 1 h at room temperature (RT). Tissue was then incubated with the primary antibody [anti-NeuN biotinylated (1:200, MAB 377B, Millipore, Mass., USA), anti-GAP-43 (1:1000, MAB347, Millipore, Mass., USA), anti-SYN (1:150, SC-7379, Santa Cruz, Calif., USA), anti-VGLUT1 (1:500, AB5905, Millipore, Mass., USA), anti-GFAP (1:200, Z0334, Dako, Stockholm, Sweden), anti-Iba-1 (1:500, 019-19741, Wako, Osaka, Japan)] in blocking buffer overnight at 4° C. One slide per staining batch was incubated only with blocking buffer without primary antibody and used as a negative control. […]
as §1

[1] = system: adult mice with global cerebral ischemia; conditions: single intraventricular injection of C3a 30 min prior to training, assessed 24 h later; cited from earlier work

C3a: Purified human C3a peptide (Complement Technologies), C3a receptor agonist, amino acid sequence SEQ ID NO: 1
GFAP relative area in CA1 and DG (GFAP): did not differ between the hemispheres or in comparison with sham mice
density of GAP-43+ puncta in CA1 (GAP-43+ puncta; between groups): did not find any differences between groups
expression of GAP-43 in the dentate gyrus (GAP-43+ puncta; mouse, in vivo): No effect
average GAP-43+ punctum area in CA1 of HI injured hippocampus vs sham mice (GAP-43+ puncta; p<0.05 for PBS): PBS treated, but not C3a treated, mice was larger compared with sham mice
amnesia induced by global cerebral ischemia [1]: ameliorate amnesia
